This data set is described as follows: Stability of mixed skin care composition (base + booster compositions). Format: physicochemical. As to conditions: combination results in incompatible pH and separation of phases. As to the method:
Referring again to FIG. 2, after the ingredient is determined, a compatibility profile is determined corresponding to the previously selected ingredients (step 207). The compatibility profile includes an inclusion or exclusion of additional ingredients to the formulation. That is, the compatibility profile provides acceptable combinations of booster composition and base composition combinations made with the previously selected ingredients that forms stable and efficacious skin care compositions. […] “Stable”, “Stability” and grammatical variations thereof, indicate a macroscopic homogeneous substance that doesn't have variation in texture or varying phases physically noticeable. In addition, microscopically the emulsion of the composition has the appearance of being homogeneous with the droplets and no dynamic changes in the microscope image. […] In addition, compatibility may include ingredients that retain efficacy of individual ingredients when combined with the other ingredients remain present in the formula over time periods and exposures to varying temperature.
Examples and comparative examples below are provided by the cosmetic dispending system as shown and described above. TABLE 3 includes the composition of Base B, the hydroalcoholic base, according to an embodiment of the disclosure.

As for `CC1=C(/C=C/C(C)=C/C=C/C(C)=C/CO)C(C)(C)CCC1` [retinol], the “compatibility with hydroalcoholic base” value is given as “not compatible”.

These data come from US11944702B2, “Skin care composition and method of making a skin care composition” (L'OREAL, priority 2017, dated 2024).
